Test results taken from patent US8207218B2, “DMAE as sole agent for the treatment of mild cognitive impairment” (Pierre Fabre Medicament, priority 2006, dated 2012).

Legend:
[1] = tested on: healthy individuals with memory loss induced by injection of scopolamine; experiment: Attention (Digit Symbol Substitution Test), alertness and mood (EVA by Bond and Lader), reaction times, after scopolamine; type: in vivo; settings: 24 healthy individuals, repeated oral doses
Experimental: (§1) Under the present invention, the activity of DMAE and its salts and esters, and the hydrates and solvates, was assessed in a population in whom this memory disorder was induced by injection of scopolamine, to reproduce the profile of the target population.
(§2) The medications given were in forms suitable to be taken via oral route, corresponding to dosage units allowing daily doses in the order of 100 mg to 3 g, advantageously 300 mg to 3 g of active ingredient in adults, particularly in the order of 1500 mg per day. The tested medications led to plasma levels corresponding to a Cmax peak of around 1.5 μg/ml of DMAE and/or around 24 ng/ml of pGlu (pyroglutamic acid).
(§3) The Applicant conducted the following tests: • Memory test: Buschke Selective Reminding Test, • Attention test: Digit Symbol Substitution Test (90″) • Assessment of alertness and mood: EVA by Bond and Lader, • Sensory-motor performance tests: reaction times (total, decisional and motor)

[2] = tested on: healthy individuals with memory loss induced by injection of scopolamine; experiment: Buschke Selective Reminding Test, memory loss induced by injection of scopolamine (cross-over study); type: in vivo; settings: 24 healthy individuals, repeated oral doses
Experimental: as §1, §2, §3
The main results observed are given in the graphs of the appended FIGS. 1 to 4 in which: • LTS designates the number of words acquired in long-term storage, • LTR designates the number of words retrieved from long-term memory in each test i.e. the words belonging to LTS and which are recalled for the test in progress, and • CLTR designates the number of words which are consistently acquired i.e. which are recalled during subsequent tests.

| SMILES | impact on the other cognitive components tested such as alertness, attention [1] | effect on memory performance levels [2] |
| --- | --- | --- |
| CN(C)CCO.O=C1CC[C@@H](C(=O)O)N1 [DMAE pyroglutamate] | without any impact | specific effect on memory performance levels |
| CN(C)CCO [DMAE, dimethylaminoethanol] | without any impact | specific effect on memory performance levels |
